Read-outs that look alike come from different tables or passages of the source.

For data set [1], the system named is people taking dofetilide or sotalol therapy. The experiment in a line: 12-lead electrocardiogram intervals, randomized, double blind, placebo-controlled study of oral magnesium L-lactate. Type of data set: in vivo, human. To be noted: for QTc Interval 3 Hour / QTc Interval 51 Hour / QTc Baseline: Bazett's formula; for QTc interval reduction: all magnesium-treated patients on sotalol or dofetilide; for QT interval reduction: magnesium therapy. How it is done:
(§1) A randomized, double blind, placebo-controlled study was performed at Hartford Hospital. People taking dofetilide or sotalol therapy for at least 5 half-lives were eligible for inclusion. […] After enrollment, people who discontinued their sotalol or dofetilide or altered their dosage of these drugs were excluded as well. Thirty-four participants were enrolled in the study. Three were subsequently excluded because the antiarrhythmics they were using were discontinued or the dose of the antiarrhythmics changed during the study. Given the known baseline differences in QTc intervals among men and women, each gender was randomized separately using stratified allocation. Patients completing the study (n=30) were well matched for baseline characteristics, which are reflected in Table 1. Intracellular concentrations of essential elements were available for 19 subjects. Overall 63.2% of patients (regardless of experimental group) had baseline intracellular magnesium concentrations below the normal reference range of 33.9-41.9 mEq/IU with an average level of 32.6±2.2 mEq/IU. All of the other baseline intracellular elements evaluated (phosphorus, chloride, calcium, potassium, and sodium) were within the reference range although the phosphorus was at the top of the range (average=16.7±2.8 mEq/IU with reference range of 14.2-17.0 mEq/IU).
(§2) Participants received three tablets of magnesium L-lactate (Mag-Tab SR®; Niche Pharmaceuticals; Roanoke, Tex.) or matching placebo twice daily (504 mg of elemental magnesium daily) for 48 hours (i.e. t=0, 12 h, 24 h, 36 h, and 48 h). A 12-lead electrocardiogram (ECG) was recorded at 25 mm/sec at rest prior to initiation of treatment (i.e. baseline) and at 3 and 51 hours after the first dose of magnesium (i.e. t=3 h and t=51 h) for each participant. A single blinded investigator read all ECGs using a precision ruler of 0.5 mm scale (Schlaedler-Quinzel, Inc. Parsippany, N.J.).
QT intervals were measured from the onset of the Q wave (or R/S wave if there was no Q wave) to the end of the T wave where it merges with the isoelectric baseline. The beginning and end of the QRS complex were determined by visual inspection, whereas the end of the T-wave was obtained by extrapolating the descending slope of the T-wave to the isoelectric baseline. When au wave interrupts the down sloping of the T-wave, the visible portion of the T wave was extrapolated to the T-P baseline to define the end of the T-wave. The R-R interval was measured from the peak of one R wave to the peak of an adjacent R wave. The QTc interval was corrected for heart rate using Bazett's formula [QTc=QT/(RR)^1/2].
(§3) Continuous data was expressed by a mean±SD. A p value less than 0.05 was considered statistically significant. The primary analysis was the intergroup comparisons of the change in QTc interval from baseline at 3 hours and 51 hours using Bazett's formula. Evaluations of the QRS, QT, and RR intervals were compared between groups at each time period as well. Mann-Whitney tests were used for all statistical analyses of continuous ECG data. Intracellular element intragroup comparisons were performed with a paired t-test. Chi^2 or Fischer's Exact tests were used for categorical comparisons. Statistical analysis was performed using SPSS version 5.

Data set [2] is described as follows: Adverse events in the placebo-controlled study. Type of data set: in vivo, human. To be noted: among the 34 patients in the study; one withdrew (diarrhea 30 minutes after dosing). How it is done:
as §1, with “Patients completing the study (n=30) were well matched for baseline characteristics, which are reflected in Table 1. Intracellular concentrations of essential elements were available for 19 subjects. Overall 63.2% of patients (regardless of experimental group) had baseline intracellular magnesium concentrations below the normal reference range of 33.9-41.9 mEq/IU with an average level of 32.6±2.2 mEq/IU.” left out
Participants received three tablets of magnesium L-lactate (Mag-Tab SR®; Niche Pharmaceuticals; Roanoke, Tex.) or matching placebo twice daily (504 mg of elemental magnesium daily) for 48 hours (i.e. t=0, 12 h, 24 h, 36 h, and 48 h). A 12-lead electrocardiogram (ECG) was recorded at 25 mm/sec at rest prior to initiation of treatment (i.e. baseline) and at 3 and 51 hours after the first dose of magnesium (i.e. t=3 h and t=51 h) for each participant. […]

The nature of data set [3]: Intracellular elemental concentrations in sublingual buccal smears (EXAtest, energy-dispersive X-ray analysis), same study. To be noted: for Intracellular magnesium concentration, Baseline: before study therapy; for Intracellular magnesium concentration, Baseline / Intracellular magnesium concentration, Post-Dosing: buccal cells, magnesium group n = 10, normal reference range 33.9-41.9, mean ± SD; for Intracellular magnesium concentration, Post-Dosing: following the third dose. It is filed as in vivo, human. The method, then:
as §1, §2
Sublingual buccal smears were obtained from a subgroup of participants prior to initiation of study therapy and following the third dose of magnesium using EXAtest™ kits (Intracellular Diagnostics, Inc.; Foster City, Calif.). Samples were analyzed by energy-dispersive X-ray Analysis for intracellular concentrations of magnesium, phosphorus, chloride, calcium, potassium, and sodium. The use of buccal cell smears for intracellular magnesium was performed because it is noninvasive, reproducible, and correlates well (r=0.68, p<0.002) with atrial cell intracellular magnesium.
as §3

The conditions of data set [4]: oral magnesium salts currently used to treat magnesium deficiencies; cited from earlier work.
Data set [5] deals with patients with atrial fibrillation. To be noted: oral, two 6-month studies; cited from earlier work.
The conditions of data set [6]: cited from earlier work.
Setting [7] is: 3 hours after first dose, 504 mg elemental magnesium daily, oral, n = 14, mean ± SD.
Where [8] appears, read: 51 hours after first dose, 504 mg elemental magnesium daily for 48 hours, oral, n = 14, mean ± SD.
The mark [9] stands for this setting: baseline, before first dose, magnesium group n = 14, on sotalol or dofetilide, mean ± SD.

As for `C[C@H](O)C(=O)[O-].C[C@H](O)C(=O)[O-].[Mg+2]` [magnesium L-lactate], the “QT Interval 3 Hour” value in data set [1] (setting [7]) was determined as 115300 ± 11100 µM·h. The “RR Interval 3 Hour” value in data set [1] (setting [7]) is 230400 ± 30860 µM·h. In addition, the “QTc Interval 3 Hour” value in data set [1] (setting [7]) worked out at 121100 ± 17700 µM·h; in data set [1] (3 hours after first dose, 504 mg elemental magnesium daily, oral, n = 14, mean ± SD, listed as Magnesium), 121100 ± 17700 µM·h. In data set [1] (3 hours after first dose, three tablets twice daily (504 mg elemental magnesium daily), oral, n = 14, mean ± SD), the “QRS Interval 3 Hour” value was found to be 39890 ± 11600 µM·h. The QTc interval reduction in data set [1] (3 hours post-dosing) turned out to be 37 ms; in data set [1] (51 hours) it was 25 ms. For the same compound, the “QTc interval reduction from baseline” value in data set [1] (3 hours, group receiving diuretics, mean ± SD) amounted to 51.1 ± 42 ms; in data set [1] (3 hours, no diuretic group, mean ± SD), 25.5 ± 27.9 ms; in data set [1] (51 hours, group receiving diuretics, mean ± SD), 24.7 ± 24.3 ms; in data set [1] (51 hours, no diuretic group, mean ± SD) it was 26.2 ± 27.4 ms. The QT interval reduction result in data set [1] (3 hours) was “isms”; in data set [1] (51 hours), 14 ms. Moreover, the “QT Interval 51 Hour” value in data set [1] (setting [8]) was found to be 115800 ± 12400 µM·h. Also, in data set [1] (setting [8]), the “RR Interval 51 Hour” value came out at 241200 ± 32670 µM·h. Further, the “QTc Interval 51 Hour” value amounted to 124800 ± 14300 µM·h in data set [1] (setting [8]) and 124800 ± 14300 µM·h in data set [1] (51 hours after first dose, 504 mg elemental magnesium daily for 48 hours, oral, n = 14, mean ± SD, listed as Magnesium). Moreover, the “QRS Interval 51 Hour” value in data set [1] (51 hours after first dose, three tablets twice daily for 48 hours (504 mg elemental magnesium daily), oral, n = 14, mean ± SD) turned out to be 36190 ± 12200 µM·h. Also, the “QTc Baseline” value in data set [1] (setting [9]) was 131200 ± 15000 µM·h; in data set [1] (baseline, before first dose, magnesium group n = 14, on sotalol or dofetilide, mean ± SD, listed as Magnesium), 131200 ± 15000 µM·h. The “QT Interval Baseline” value in data set [1] (setting [9]) worked out at 119600 ± 10600 µM·h. Moreover, the “RR Interval Baseline” value in data set [1] (setting [9]) was determined as 235600 ± 45530 µM·h. Further, in data set [2], the “patients who experienced loose bowel movements” value is reported as 2 patients. Also, the “intracellular magnesium of patients with baseline concentrations below the normal reference range, after magnesium supplementation” value in data set [3] (all such patients, normal reference range 33.9-41.9 mEq/IU) is “achieving a concentration within the normal reference range”. Besides, the “Intracellular magnesium concentration, Baseline” value is recorded as 32.6±2.2 mEq/IU in data set [3] and 32.2 ± 2.2 mEq/IU in data set [3] (listed as Magnesium). The “Intracellular magnesium concentration, Post-Dosing” value in data set [3] is listed as 36.2±2.4 mEq/IU; in data set [3] (listed as Magnesium) it was 36.2 ± 2.4 mEq/IU. Further, the “effective in repleting intracellular magnesium levels to normal ranges” value in data set [3] (normal range defined as a minimum concentration of 33.9 mEq/IU) is 100%.

Turning to `[Cl-].[Cl-].[Mg+2]` [magnesium chloride], the bioavailability entry in data set [4] is “about 20%”.

With `[Mg+2].[OH-].[OH-]` [magnesium hydroxide], the maintaining sinus rhythm result in data set [5] is given as “ineffective at maintaining sinus rhythm”.

As to `[O]=[Mg]` [magnesium oxide], the bioavailability result in data set [4] is given as “about 2%”.

Turning to `O=S(=O)([O-])[O-].[Mg+2]` [magnesium sulfate], the conversion rate is listed as 57% in data set [6] (trial of intravenous magnesium sulfate versus diltiazem, p=0.03) and 58% in data set [6] (trial of intravenous magnesium sulfate versus verapamil, p=0.01).

As for magnesium gluconate, in data set [4], the bioavailability entry is “about 20%”.

The values are drawn from US20140121273A1, “METHOD FOR TREATMENT OF MAGNESIUM AND POTASSIUM DEFICIENCIES” (priority 2005, published 2014).
